Assay results: ChEMBL document CHEMBL1127341, “Synthesis and biological evaluation of 5-[[3,5-bis(1,1-dimethylethyl)- 4-hydroxyphenyl]methylene]oxazoles, -thiazoles, and -imidazoles: novel dual 5-lipoxygenase and cyclooxygenase inhibitors with antiinflammatory activity” (J Med Chem, 1994)
The source made the active and inactive calls. The calls are words filed in the database; no cut-off is given here.

Assays:
[1] = tested on: Rattus norvegicus; assay: Inhibition of rat carrageenan induced foot-pad edema at a dose of 10 mg/kg on peroral administration; conditions: po, read-out: Inhibition
[2] = tested on: Rattus norvegicus; assay: Inhibition of rat carrageenan induced foot-pad edema at a dose of 30 mg/kg on peroral administration; conditions: po, read-out: Inhibition
[3] = target: T1, Polyunsaturated fatty acid 5-lipoxygenase (Rattus norvegicus, UniProt P12527)
T1 sequence (P12527 whole entry): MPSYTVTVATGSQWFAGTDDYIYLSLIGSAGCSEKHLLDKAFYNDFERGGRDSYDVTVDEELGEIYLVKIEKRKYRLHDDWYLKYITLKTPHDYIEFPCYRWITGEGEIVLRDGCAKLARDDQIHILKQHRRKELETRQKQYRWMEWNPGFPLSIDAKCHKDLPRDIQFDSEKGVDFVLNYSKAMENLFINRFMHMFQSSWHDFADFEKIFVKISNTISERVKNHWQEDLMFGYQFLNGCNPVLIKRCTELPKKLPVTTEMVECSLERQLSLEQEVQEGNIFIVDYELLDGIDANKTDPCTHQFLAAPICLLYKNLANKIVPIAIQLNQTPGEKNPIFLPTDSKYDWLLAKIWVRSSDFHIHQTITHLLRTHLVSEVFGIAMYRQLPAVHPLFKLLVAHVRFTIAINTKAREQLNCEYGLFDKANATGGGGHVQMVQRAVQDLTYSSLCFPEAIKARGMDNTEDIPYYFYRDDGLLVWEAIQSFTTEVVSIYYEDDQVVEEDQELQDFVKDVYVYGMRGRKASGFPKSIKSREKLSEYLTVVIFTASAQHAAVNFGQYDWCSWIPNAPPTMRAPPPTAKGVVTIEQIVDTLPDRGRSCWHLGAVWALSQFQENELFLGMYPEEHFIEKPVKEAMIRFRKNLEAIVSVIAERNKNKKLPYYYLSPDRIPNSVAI

[4] = target: T2, Cyclooxygenase (Rattus norvegicus, UniProt P35355+Q63921); conditions: rbl-1
T2 sequence (P35355 whole entry): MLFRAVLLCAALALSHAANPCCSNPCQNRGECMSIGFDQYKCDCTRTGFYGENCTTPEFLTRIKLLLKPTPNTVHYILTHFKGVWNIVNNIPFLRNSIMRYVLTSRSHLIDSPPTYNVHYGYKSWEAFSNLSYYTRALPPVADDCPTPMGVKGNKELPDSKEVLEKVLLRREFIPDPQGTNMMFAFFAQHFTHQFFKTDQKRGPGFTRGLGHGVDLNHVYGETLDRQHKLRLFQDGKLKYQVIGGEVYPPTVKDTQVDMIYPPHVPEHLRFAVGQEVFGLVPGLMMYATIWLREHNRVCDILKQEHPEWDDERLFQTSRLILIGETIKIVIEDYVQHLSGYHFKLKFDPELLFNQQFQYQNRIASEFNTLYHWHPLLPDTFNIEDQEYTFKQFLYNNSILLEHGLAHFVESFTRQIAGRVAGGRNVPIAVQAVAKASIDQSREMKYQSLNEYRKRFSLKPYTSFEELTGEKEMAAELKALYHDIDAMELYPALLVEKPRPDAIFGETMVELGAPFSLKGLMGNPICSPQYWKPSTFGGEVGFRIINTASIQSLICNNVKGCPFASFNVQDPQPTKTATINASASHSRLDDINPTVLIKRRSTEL
T2 sequence (Q63921 whole entry): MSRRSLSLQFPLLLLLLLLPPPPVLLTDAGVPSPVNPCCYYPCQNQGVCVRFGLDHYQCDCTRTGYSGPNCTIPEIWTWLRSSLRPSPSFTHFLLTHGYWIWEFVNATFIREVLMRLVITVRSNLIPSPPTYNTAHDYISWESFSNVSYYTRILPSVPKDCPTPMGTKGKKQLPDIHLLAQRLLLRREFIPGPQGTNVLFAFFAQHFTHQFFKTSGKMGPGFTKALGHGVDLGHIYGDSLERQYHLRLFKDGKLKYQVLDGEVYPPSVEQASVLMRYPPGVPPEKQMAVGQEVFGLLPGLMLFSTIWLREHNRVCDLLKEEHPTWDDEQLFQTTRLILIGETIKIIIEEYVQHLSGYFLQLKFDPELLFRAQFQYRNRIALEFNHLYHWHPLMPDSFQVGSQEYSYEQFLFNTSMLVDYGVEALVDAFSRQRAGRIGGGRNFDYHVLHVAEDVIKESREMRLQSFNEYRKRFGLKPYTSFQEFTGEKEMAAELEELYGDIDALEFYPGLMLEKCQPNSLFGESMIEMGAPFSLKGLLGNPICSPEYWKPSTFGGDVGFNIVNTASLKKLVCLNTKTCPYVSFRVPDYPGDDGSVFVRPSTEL
Description: Inhibition of prostaglandin G/H synthase in intact rat basophilic leukemia cells stimulated with the calcium ionophore A-23187

[5] = tested on: Rattus norvegicus; assay: Inhibition of rat carrageenan induced foot-pad edema at a dose of 30 mg/kg on peroral administration; N=Inactive; assay type: functional, organism-based; design: dose 30 mg/kg
[6] = tested on: Rattus norvegicus; assay: 40% inhibition of induced edema in the rat mycobacterium foot-pad edema test; N=Inactive; assay type: functional, organism-based
[7] = target: T3, Polyunsaturated fatty acid 5-lipoxygenase (Rattus norvegicus) (UniProt P12527); assay: Inhibitory activity at 10 uM against 5-lipoxygenase in intact rat basophilic leukemia cells stimulated with the calcium ionophore A-23187; assay type: cell-based; conditions: RBL-1
T3 sequence (whole entry): T1 sequence (P12527 whole entry)

[8] = target: T3, Polyunsaturated fatty acid 5-lipoxygenase (Rattus norvegicus); assay: Inhibitory activity against 5-lipoxygenase in intact rat basophilic leukemia cells stimulated with the calcium ionophore A-23187; assay type: cell-based; conditions: RBL-1; concentration not given here
[9] = target: T4, Cyclooxygenase (Rattus norvegicus) (UniProt P35355+Q63921); assay: Inhibitory activity against Prostaglandin G/H synthase in intact rat basophilic leukemia cells stimulated with the calcium ionophore A-23187 at 10 uM; assay type: cell-based; conditions: RBL-1
[10] = tested on: Rattus norvegicus; assay: 40% inhibition of induced edema in the rat mycobacterium foot-pad edema test; assay type: functional
[11] = target: T1, Polyunsaturated fatty acid 5-lipoxygenase; assay: Inhibitory activity against 5-lipoxygenase in intact rat basophilic leukemia cells stimulated with the calcium ionophore A-23187; N=Inactive; assay type: cell-based; conditions: rbl-1
[12] = tested on: Rattus norvegicus; assay: Inhibition of rat carrageenan induced foot-pad edema at a dose of 30 mg/kg on peroral administration; Inactive(N)= <25% inhibition at a dose of 30 mg/kg po; assay type: functional, organism-based
[13] = tested on: Rattus norvegicus; assay: 40% inhibition of induced edema in the rat mycobacterium foot-pad edema test; Inactive(N)= <30% inhibition at a dose of 10 mg/kg po; assay type: functional, organism-based; design: dose 10 mg/kg
[14] = target: T3, Polyunsaturated fatty acid 5-lipoxygenase (Rattus norvegicus); assay: Inhibitory activity at 1 uM against 5-lipoxygenase in intact rat basophilic leukemia cells stimulated with the calcium ionophore A-23187; assay type: cell-based; conditions: RBL-1
[15] = target: T1, Polyunsaturated fatty acid 5-lipoxygenase; assay: Inhibitory activity against 5-lipoxygenase in intact rat basophilic leukemia cells stimulated with the calcium ionophore A-23187; Inactive(N)= <50% inhibition at 10 uM; assay type: cell-based; conditions: rbl-1
[16] = target: T4, Cyclooxygenase (Rattus norvegicus); assay: Inhibitory activity at 10 uM against Prostaglandin G/H synthase in intact rat basophilic leukemia cells stimulated with the calcium ionophore A-23187; assay type: cell-based; conditions: RBL-1

SMILES	IC50 [3] [µM]	IC50 [4] [µM]	inhibition in vivo at 10 mg/kg [1] [%]	inhibition in vivo at 30 mg/kg [2] [%]	also measured
CC(C)(C)c1cc(/C=C2\SC(=S)NC2=O)cc(C(C)(C)C)c1O	0.38	0.012	32	36	–
CN(C)CCNC1=NC(=O)/C(=C/c2cc(C(C)(C)C)c(O)c(C(C)(C)C)c2)S1	–	–	–	–	inhibition [7]: 79%
CN(C)C1=NC(=O)/C(=C/c2cc(C(C)(C)C)c(O)c(C(C)(C)C)c2)S1	–	–	–	–	inhibition [8]: 65%
C/C(=C1/SC(=O)NC1=O)c1cc(C(C)(C)C)c(O)c(C(C)(C)C)c1	0.48	–	–	–	inhibition [9]: 52%
C/C(=C1/SC(N=C(N)N)=NC1=O)c1cc(C(C)(C)C)c(O)c(C(C)(C)C)c1	1.6	1.9	–	–	inhibition [5]: inactive
CC(C)(C)c1cc(/C=C2\OC(N=C(N)N)=NC2=O)cc(C(C)(C)C)c1O.CS(=O)(=O)O	1.2	0.34	33	48	ID40 [10]: 5.7 mg/kg
O=C1NC(=O)/C(=C/c2ccc(O)cc2)S1	–	–	–	–	IC50 [11]: Not Active
CC(C)(C)c1cc(/C=C2\SC(=O)NC2=O)cc(C(C)(C)C)c1O	–	0.35	54	59	ID40 [10]: 2 mg/kg
CON1CC/C(=C\c2cc(C(C)(C)C)c(O)c(C(C)(C)C)c2)C1=O [E-5110]	–	–	–	–	ID40 [10]: 1.9 mg/kg
CC(C)(C)c1cc(/C=C2\SC(=N)NC2=O)cc(C(C)(C)C)c1O.CS(=O)(=O)O [DARBUFELONE MESYLATE]	0.77	0.39	52	61	ID40 [10]: 0.6 mg/kg
CN(C)C(=N)NC1=NC(=O)/C(=C/c2cc(C(C)(C)C)c(O)c(C(C)(C)C)c2)S1	–	–	–	–	inhibition [14]: 100%
CNC1=NC(=O)/C(=C/c2cc(C(C)(C)C)c(O)c(C(C)(C)C)c2)S1	–	–	–	–	IC50 [15]: Inactive
CC(C)c1cc(/C=C2\SC(=O)NC2=O)cc(C(C)C)c1O	0.22	0.82	–	–	ID40 [6]: inactive
CC(C)(C)c1cc(/C=C2\CC(=S)NC2=O)cc(C(C)(C)C)c1O	1.7	2.4	19	39	ID40 [13]: inactive
CC(C)(C)c1cc(/C=C2\SC(NCCCC(=O)O)=NC2=O)cc(C(C)(C)C)c1O	–	–	–	–	inhibition [7]: 53%
C/C(=C1/SC(=S)NC1=O)c1cc(C(C)(C)C)c(O)c(C(C)(C)C)c1	2.3	4.5	–	–	inhibition [12]: inactive
O=C1NC(=O)/C(=C/c2cc(I)c(O)c(I)c2)S1	–	–	–	–	IC50 [15]: Inactive; inhibition [16]: 60%
CONC1=NC(=O)/C(=C/c2cc(C(C)(C)C)c(O)c(C(C)(C)C)c2)S1	–	–	–	–	IC50 [11]: Not Active
CN(O)C1=NC(=O)/C(=C/c2cc(C(C)(C)C)c(O)c(C(C)(C)C)c2)S1 [listing 1 of 2 here]	–	–	–	–	inhibition [5]: inactive
CN1C(NC(=N)N)=NC(=O)/C1=C/c1cc(C(C)(C)C)c(O)c(C(C)(C)C)c1	1.3	2.1	–	–	inhibition [5]: inactive
CC(C)(C)c1cc(/C=C2\CCOC2=O)cc(C(C)(C)C)c1O	–	–	17	28	ID40 [10]: 3.7 mg/kg
CC(C)(C)c1cc(/C=C2\SC(NO)=NC2=O)cc(C(C)(C)C)c1O	3.7	0.8	–	–	inhibition [5]: inactive

Continued, in another order:

IC50 [3] [µM]	IC50 [4] [µM]	SMILES	inhibition in vivo at 10 mg/kg [1] [%]	inhibition in vivo at 30 mg/kg [2] [%]	also measured
1.2	5.1	C/C(=C1/SC(NC#N)=NC1=O)c1cc(C(C)(C)C)c(O)c(C(C)(C)C)c1	–	–	inhibition [5]: inactive
0.63	0.16	CC(C)(C)c1cc(/C=C2\SC(NC#N)=NC2=O)cc(C(C)(C)C)c1O	29	49	ID40 [6]: inactive
0.17	0.79	CN1C(=S)NC(=O)/C1=C/c1cc(C(C)(C)C)c(O)c(C(C)(C)C)c1	–	–	inhibition [5]: inactive
2.6	1.1	CC(C)(C)c1cc(/C=C2\OC(NC#N)=NC2=O)cc(C(C)(C)C)c1O	–	–	inhibition [5]: inactive
2.8	0.65	CC(C)(C)c1cc(/C=C2\OC(=O)NC2=O)cc(C(C)(C)C)c1O	35	51	ID40 [10]: 3.7 mg/kg
0.65	0.6	CSC1=NC(=O)/C(=C/c2cc(C(C)(C)C)c(O)c(C(C)(C)C)c2)S1	36	47	ID40 [6]: inactive
0.78	4.6	CN1C(=O)NC(=O)/C1=C/c1cc(C(C)(C)C)c(O)c(C(C)(C)C)c1	–	–	inhibition [12]: inactive
0.16	9.6	O=C1NC(=O)/C(=C/c2cc(-c3ccccc3)c(O)c(-c3ccccc3)c2)S1	11	41	ID40 [13]: inactive
1.7	0.33	CN(O)C1=NC(=O)/C(=C/c2cc(C(C)(C)C)c(O)c(C(C)(C)C)c2)S1.Cl	–	–	ID40 [10]: 6.2 mg/kg
0.84	1.7	CC(C)(C)c1cc(/C=C2\OC(=S)NC2=O)cc(C(C)(C)C)c1O	32	40	ID40 [10]: 12.4 mg/kg
0.7	3.5	CN1C(NC#N)=NC(=O)/C1=C/c1cc(C(C)(C)C)c(O)c(C(C)(C)C)c1	–	–	inhibition [5]: inactive
0.91	0.083	CC(C)(C)c1cc(/C=C2\SC(N=C(N)N)=NC2=O)cc(C(C)(C)C)c1O	34	40	ID40 [10]: 2.2 mg/kg
3.3	4.6	CC(C)(C)c1cc(/C=C2\SC(=O)NC2=O)cc(C(C)(C)C)c1	–	–	inhibition [5]: inactive
7.3	10	CN(O)C1=NC(=O)/C(=C/c2cc(C(C)(C)C)c(O)c(C(C)(C)C)c2)S1 [listing 2 of 2 here]	–	–	–
